Results as given in paper doi:10.1101/2025.06.03.657755v1 (biorxiv, 2025).

Biological target: SINV nsP2 (Sindbis virus, UniProt P03317)
Sequence (P03317 541-1347): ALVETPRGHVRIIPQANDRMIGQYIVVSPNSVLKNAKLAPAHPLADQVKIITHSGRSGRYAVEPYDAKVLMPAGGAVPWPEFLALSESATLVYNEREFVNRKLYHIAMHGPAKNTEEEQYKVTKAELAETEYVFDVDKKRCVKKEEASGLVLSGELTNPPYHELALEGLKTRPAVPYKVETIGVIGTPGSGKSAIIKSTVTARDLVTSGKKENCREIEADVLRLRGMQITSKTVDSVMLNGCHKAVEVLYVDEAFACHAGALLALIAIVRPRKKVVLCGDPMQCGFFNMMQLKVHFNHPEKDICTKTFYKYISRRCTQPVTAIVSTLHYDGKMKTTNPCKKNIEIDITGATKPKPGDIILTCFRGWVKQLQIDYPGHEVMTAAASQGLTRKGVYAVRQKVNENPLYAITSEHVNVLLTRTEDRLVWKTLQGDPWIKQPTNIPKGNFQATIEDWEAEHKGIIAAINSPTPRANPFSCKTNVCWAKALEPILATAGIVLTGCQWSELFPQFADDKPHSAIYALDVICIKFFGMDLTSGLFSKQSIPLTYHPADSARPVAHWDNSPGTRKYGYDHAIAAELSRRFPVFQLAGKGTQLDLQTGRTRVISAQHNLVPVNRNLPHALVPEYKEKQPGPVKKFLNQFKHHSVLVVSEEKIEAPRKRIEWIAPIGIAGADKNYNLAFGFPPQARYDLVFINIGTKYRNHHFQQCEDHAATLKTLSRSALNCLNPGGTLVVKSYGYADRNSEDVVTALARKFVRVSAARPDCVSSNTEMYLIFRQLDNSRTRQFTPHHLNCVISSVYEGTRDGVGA

In the case of Nc1ncnc2c1ncn2[C@@H]1O[C@H](COP(=O)(O)OP(=O)(O)OP(=O)(O)O)[C@@H](O)[C@H]1O [ATP], the Km is reported as “these additions increase the ATPase Km”.
